The target of assay [1] is IL-17A(FLAG-Tagged): IL-17RA(His-Tagged) (Homo sapiens, UniProt Q16552, K93Q). The assay is described as follows: IL-17A(FLAG-Tagged): IL-17RA(His-Tagged) Binding Disruption Eu-HTRF Assay. Conditions: IL-17A/IL-17RA binding disruption, simple average if tested more than once. In short, it runs like this: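 IC50 comes from a one-site competition fit of the HTRF 665/620 nm ratio. Compound dilutions (2-fold, 22 points) were held 1 h rt with FLAG-tagged IL-17A dimer, then His-tagged IL-17RA plus Eu-cryptate anti-FLAG and D2 anti-His antibodies were added for 2 h rt.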
In general terms: Time-resolved FRET reads energy transfer from a long-lived donor to a nearby acceptor.

For assay [2], the system named is IL-17A-induced G-CSF production in human normal keratinocyte (NHK). As to the kind of experiment: NHK Assay: IL-17A-induced G-CSF production in human normal keratinocytes. The settings on record: Homo sapiens, Keratinocyte, 24 h, adult normal human keratinocytes, IL-17A 5 ng/mL, simple average if tested more than once. It counts as cell-based. In short, it runs like this:
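Titrated compound plus recombinant human IL-17A (pre-incubated 1 h, rt) were applied to adult human keratinocytes at 5 ng/mL cytokine, 0.2% DMSO. Cultures ran 24 h at 37° C, and supernatant G-CSF was measured by HTRF to derive IC50.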

One may read the IC50 as the concentration that inhibits the measured activity by half.

Chain of UniProt Q16552 (Q16552 with tags, fused parts or gaps K93Q): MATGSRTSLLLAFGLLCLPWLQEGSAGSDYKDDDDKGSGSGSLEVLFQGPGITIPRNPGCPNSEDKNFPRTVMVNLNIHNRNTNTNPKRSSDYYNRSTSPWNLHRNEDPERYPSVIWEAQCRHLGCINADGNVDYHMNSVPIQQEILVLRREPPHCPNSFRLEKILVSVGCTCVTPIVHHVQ

For the compound `CC(C)n1nccc1C(=O)N[C@H](c1cn2ncc([C@H](NC(=O)CCC(C)(F)F)C3CC3)cc2n1)C1CCC(F)(F)CC1` [Example 260, N—((S)-(7-((R)-Cyclopropyl(4,4-difluoropentanamido)methyl)imidazo[1,2-b]pyridazin-2-yl)(4,4-difluorocyclohexyl)methyl)-1-isopropyl-1H-pyrazole-5-carboxamide], the IC50 worked out at 120 nM in assay [1] and 180 nM in assay [2].

For the compound `CC(C)n1nccc1C(=O)N[C@H](c1cn2ncc([C@H](NC(=O)CC(C)(F)F)C3CC3)cc2n1)C1CCC(F)(F)CC1` [Example 261, N—((S)-(7-((R)-Cyclopropyl(3,3-difluorobutanamido)methyl)imidazo[1,2-b]pyridazin-2-yl)(4,4-difluorocyclohexyl)methyl)-1-isopropyl-1H-pyrazole-5-carboxamide], the IC50 in assay [1] is 130 nM; in assay [2] it was 430 nM.

As for `CC(CC(=O)N[C@@H](c1cnn2cc([C@@H](NC(=O)c3ccnn3C(C)C)C3CCC(F)(F)CC3)nc2c1)C1CC1)C(F)F` (stereo partly drawn) [Example 262, N-((1S)-(7-((1R)-Cyclopropyl(4,4-difluoro-3-methylbutanamido)methyl)imidazo[1,2-b]pyridazin-2-yl)(4,4-difluorocyclohexyl)methyl)-1-isopropyl-1H-pyrazole-5-carboxamide], the IC50 in assay [1] and in assay [2] was 120 nM in each case.

For `Cc1nonc1C(=O)N[C@H](c1cn2ncc([C@H](NC(=O)CC(C)(F)F)C3CC3)cc2n1)C1CCC(F)(F)CC1` [Example 263, N—((S)-(7-((R)-Cyclopropyl(3,3-difluorobutanamido)methyl)imidazo[1,2-b]pyridazin-2-yl)(4,4-difluorocyclohexyl)methyl)-4-methyl-1,2,5-oxadiazole-3-carboxamide], the IC50 in assay [1] was 210 nM; in assay [2] it was 1800 nM.

Turning to `CC(C)n1nccc1C(=O)N[C@H](c1cn2ncc([C@H](NC(=O)C34CC(F)(C3)C4)C3CC3)cc2n1)C1CCC(F)(F)CC1` [Example 268, N—((S)-(7-((R)-Cyclopropyl(3-fluorobicyclo[1.1.1]pentane-1-carboxamido)methyl)imidazo[1,2-b]pyridazin-2-yl)(4,4-difluorocyclohexyl)methyl)-1-isopropyl-1H-pyrazole-5-carboxamide], the IC50 in assay [1] worked out at 750 nM; in assay [2], 3000 nM.

As for `Cc1nonc1C(=O)N[C@H](c1cn2ncc([C@H](NC(=O)C34CC(F)(C3)C4)C3CC3)cc2n1)C1CCC(F)(F)CC1` [Example 269, N—((S)-(7-((R)-Cyclopropyl(3-fluorobicyclo[1.1.1]pentane-1-carboxamido)methyl)imidazo[1,2-b]pyridazin-2-yl)(4,4-difluorocyclohexyl)methyl)-4-methyl-1,2,5-oxadiazole-3-carboxamide], the IC50 in assay [1] is 2000 nM; in assay [2], 20000 nM.

For `Cc1nonc1C(=O)N[C@H](c1cn2ncc([C@H](NC(=O)CC34CC(F)(C3)C4)C3CC3)cc2n1)C1CCC(F)(F)CC1` [Example 272, N—((S)-(7-((R)-Cyclopropyl(2-(3-fluorobicyclo[1.1.1]pentan-1-yl)acetamido)methyl)imidazo[1,2-b]pyridazin-2-yl)(4,4-difluorocyclohexyl)methyl)-4-methyl-1,2,5-oxadiazole-3-carboxamide], the IC50 in assay [1] was 86 nM; in assay [2], 290 nM.

For `CC(C)n1nccc1C(=O)N[C@H](c1cn2ncc([C@H](NC(=O)CC34CC(F)(C3)C4)C3CC3)cc2n1)C1CCC(F)(F)CC1` [Example 273, N—((S)-(7-((R)-Cyclopropyl(2-(3-fluorobicyclo[1.1.1]pentan-1-yl)acetamido)methyl)imidazo[1,2-b]pyridazin-2-yl)(4,4-difluorocyclohexyl)methyl)-1-isopropyl-1H-pyrazole-5-carboxamide], the IC50 in assay [1] worked out at 160 nM; in assay [2], 71 nM.

On to `CC(C)n1nccc1C(=O)N[C@H](c1cn2ncc([C@H](NC(=O)COC(F)F)C3CC3)cc2n1)C1CCC(F)(F)CC1` [Example 274, N—((S)-(7-((R)-Cyclopropyl(2-(difluoromethoxy)acetamido)methyl)imidazo[1,2-b]pyridazin-2-yl)(4,4-difluorocyclohexyl)methyl)-1-isopropyl-1H-pyrazole-5-carboxamide], for which the IC50 in assay [1] was determined as 330 nM; in assay [2], 950 nM.

On to `CC(C)n1nccc1C(=O)N[C@H](c1cn2ncc([C@H](NC(=O)CC3CCCC3(F)F)C3CC3)cc2n1)C1CCC(F)(F)CC1` (stereo partly drawn) [Example 275, N-((1S)-(7-((1R)-Cyclopropyl(2-(2,2-difluorocyclopentyl)acetamido)methyl)imidazo[1,2-b]pyridazin-2-yl)(4,4-difluorocyclohexyl)methyl)-1-isopropyl-1H-pyrazole-5-carboxamide], for which the IC50 is 170 nM in assay [1] and 150 nM in assay [2].

With `CC(C)n1nccc1C(=O)N[C@H](c1cn2ncc([C@H](NC(=O)COC(F)(F)F)C3CC3)cc2n1)C1CCC(F)(F)CC1` [Example 276, N—((S)-(7-((R)-Cyclopropyl(2-(trifluoromethoxy)acetamido)methyl)imidazo[1,2-b]pyridazin-2-yl)(4,4-difluorocyclohexyl)methyl)-1-isopropyl-1H-pyrazole-5-carboxamide], the results for the IC50 in assay [1] and in assay [2] were 150 nM and 140 nM, respectively.

In the case of `Cc1nonc1C(=O)N[C@H](c1cn2ncc([C@H](NC(=O)COC(F)(F)F)C3CC3)cc2n1)C1CCC(F)(F)CC1` [Example 277, N—((S)-(7-((R)-Cyclopropyl(2-(trifluoromethoxy)acetamido)methyl)imidazo[1,2-b]pyridazin-2-yl)(4,4-difluorocyclohexyl)methyl)-4-methyl-1,2,5-oxadiazole-3-carboxamide], the figures for the IC50 in assay [1] and in assay [2] were 180 nM and 690 nM, respectively.

For the compound `Cc1nonc1C(=O)N[C@H](c1cn2ncc([C@H](NC(=O)COC(F)F)C3CC3)cc2n1)C1CCC(F)(F)CC1` [Example 278, N—((S)-(7-((R)-Cyclopropyl(2-(difluoromethoxy)acetamido)methyl)imidazo[1,2-b]pyridazin-2-yl)(4,4-difluorocyclohexyl)methyl)-4-methyl-1,2,5-oxadiazole-3-carboxamide], the IC50 in assay [1] is 1100 nM; in assay [2] it was 2500 nM.

Consider `CC(C)c1nonc1C(=O)N[C@H](c1cn2ncc([C@H](NC(=O)CC34CC(F)(C3)C4)C3CC3)cc2n1)C1CCC(F)(F)CC1` [Example 279, N—((S)-(7-((R)-Cyclopropyl(2-(3-fluorobicyclo[1.1.1]pentan-1-yl)acetamido)methyl)imidazo[1,2-b]pyridazin-2-yl)(4,4-difluorocyclohexyl)methyl)-4-isopropyl-1,2,5-oxadiazole-3-carboxamide], for which the IC50 turned out to be 36 nM in assay [1] and 64 nM in assay [2].

Take `CC(C)n1nccc1C(=O)N[C@H](c1cn2ncc([C@H](NC(=O)CCC(F)F)C3CC3)cc2n1)C1CCC(F)(F)CC1` [Example 280, N—((S)-(7-((R)-Cyclopropyl(4,4-difluorobutanamido)methyl)imidazo[1,2-b]pyridazin-2-yl)(4,4-difluorocyclohexyl)methyl)-1-isopropyl-1H-pyrazole-5-carboxamide]: the IC50 came to 54 nM in assay [1] and 120 nM in assay [2].

`CC(C)c1nonc1C(=O)N[C@H](c1cn2ncc([C@H](NC(=O)CC3CC(F)(F)C3)C3CC3)cc2n1)C1CCC(F)(F)CC1` [Example 281, N—((S)-(7-((R)-Cyclopropyl(2-(3,3-difluorocyclobutyl)acetamido)methyl)imidazo[1,2-b]pyridazin-2-yl)(4,4-difluorocyclohexyl)methyl)-4-isopropyl-1,2,5-oxadiazole-3-carboxamide]: the IC50 was 24 nM in assay [1] and 26 nM in assay [2].

`[2H]C([2H])([2H])C([2H])([2H])n1nccc1C(=O)N[C@H](c1cn2ncc([C@H](NC(=O)CCC(F)F)C3CC3)cc2n1)C1CCC(F)(F)CC1` [Example 282, N—((S)-(7-((R)-Cyclopropyl(4,4-difluorobutanamido)methyl)imidazo[1,2-b]pyridazin-2-yl)(4,4-difluorocyclohexyl)methyl)-1-(ethyl-d5)-1H-pyrazole-5-carboxamide]: the values for the IC50 in assay [1] and in assay [2] were 160 nM and 420 nM, respectively.

Take `[2H]C([2H])([2H])n1nccc1C(=O)N[C@H](c1cn2ncc([C@H](NC(=O)CCC(F)F)C3CC3)cc2n1)C1CCC(F)(F)CC1` [Example 283, N—((S)-(7-((R)-Cyclopropyl(4,4-difluorobutanamido)methyl)imidazo[1,2-b]pyridazin-2-yl)(4,4-difluorocyclohexyl)methyl)-1-(methyl-d3)-1H-pyrazole-5-carboxamide]: the IC50 in assay [1] amounted to 310 nM; in assay [2] it was 690 nM.

For `CC(C)Oc1nocc1C(=O)N[C@H](c1cn2ncc([C@H](NC(=O)CCC(F)(F)F)C3CC3)cc2n1)C1CCC(F)(F)CC1` [Example 284, N—((S)-(7-((R)-Cyclopropyl(4,4,4-trifluorobutanamido)methyl)imidazo[1,2-b]pyridazin-2-yl)(4,4-difluorocyclohexyl)methyl)-3-isopropoxyisoxazole-4-carboxamide], the concentration for half-maximal inhibition (IC50) in assay [1] came out at 220 nM; in assay [2], 920 nM.

Regarding `O=C(CCC(F)(F)F)N[C@@H](c1cnn2cc([C@@H](NC(=O)c3conc3OCC(F)F)C3CCC(F)(F)CC3)nc2c1)C1CC1` [Example 285, N—((S)-(7-((R)-Cyclopropyl(4,4,4-trifluorobutanamido)methyl)imidazo[1,2-b]pyridazin-2-yl)(4,4-difluorocyclohexyl)methyl)-3-(2,2-difluoroethoxy)isoxazole-4-carboxamide], the IC50 in assay [1] is 120 nM; in assay [2], 340 nM.
